Patent US20260008758A1, “LINEAR DIPEPTIDYL PEPTIDASE 1 INHIBITORS AND USES THEREOF” (Insmed Incorporated, priority 2024, published 2026)

Each molecule was assayed against human DPP1 enzyme (Homo sapiens (Human), UniProt P53634) (assay: Human DPP1 enzyme IC50 assay). Settings: recombinant human DPP1, H-Gly-Arg-AMC substrate 400 μM.
Assay type: biochemical
Method: Test articles were applied to activated human DPP1 enzyme in Assay Buffer (25 mM MES pH 6.0, 50 mM NaCl, 5 mM DTT) in a total reaction volume of 125 μL. 25 μL of compound in Assay Buffer plus 5% DMSO was first added to 50 μL of activated human DPP1 enzyme at a concentration of 1 ng/μL and allowed to pre-incubate for 10 minutes at 37° C. after which 50 μL of 1000 μM H-Gly-Arg-AMC substrate (Bachem; St. Torrance, CA) was added, giving final substrate concentration of 400 μM and a final DMSO concentration of 1%. Substrate cleavage was measured for 90 minutes at 37° C., with fluorescence at Excitation/Emission 350/450 nm measured every 5 minutes. DPP1 concentration was interpolated based on its activity relative to a standard curve of activated human recombinant DPP1 enzyme. IC50 values for each compound were calculated via the XLFit (IDBS Version 5.3.1.3) Add-On to Microsoft Excel using the four parameter fit equation y={A+[(B-A)]/[1+((C/x)^D)]}, which appears as equation number 205 (4 Parameter Logistic Model or Sigmoidal Dose-Response Model) in XLFit. Default constraints were used for each Parameter.

human DPP1 enzyme, sequence (P53634 25-134): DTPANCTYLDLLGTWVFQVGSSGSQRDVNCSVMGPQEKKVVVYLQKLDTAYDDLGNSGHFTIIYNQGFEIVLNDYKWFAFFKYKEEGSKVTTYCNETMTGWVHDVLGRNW
human DPP1 enzyme, sequence (P53634 231-394): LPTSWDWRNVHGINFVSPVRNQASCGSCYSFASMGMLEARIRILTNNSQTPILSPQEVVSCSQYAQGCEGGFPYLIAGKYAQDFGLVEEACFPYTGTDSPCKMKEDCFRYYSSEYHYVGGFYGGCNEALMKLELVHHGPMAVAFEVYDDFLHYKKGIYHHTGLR
human DPP1 enzyme, sequence (P53634 395-463): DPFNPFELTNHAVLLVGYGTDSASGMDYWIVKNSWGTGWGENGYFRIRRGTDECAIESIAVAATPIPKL

Compound	IC50
Cc1ccccc1C[C@H](CN)C(=O)N[C@H](C#N)Cc1ccc(-c2ccc3oc(=O)n(C)c3c2)cc1 [Compound 193, (2R)-3-amino-N-[(1S)-1-cyano-2-[4-(3-methyl-2-oxo-1,3-benzoxazol-5-yl)phenyl]ethyl]-2-[(2-methylphenyl)methyl]propanamide]	≥ 15 nM
CCN(CC)C[C@@H](O)C(=O)N[C@H](C#N)Cc1ccc(-c2ccc3oc(=O)n(C)c3c2)cc1 [Compound 116, (2R)—N-[(1S)-1-cyano-2-[4-(3-methyl-2-oxo-1,3-benzoxazol-5-yl)phenyl]ethyl]-3-(diethylamino)-2-hydroxypropanamide]	≥ 15 nM
Cc1cn2cc(-c3ccc(C[C@@H](C#N)NC(=O)[C@](C)(N)C4CCC4)c(F)c3)cc2c(C)n1 [Compound 272A, (R)-2-amino-N—((S)-1-cyano-2-(4-(1,3-dimethylpyrrolo[1,2-a]pyrazin-7-yl)-2-fluorophenyl)ethyl)-2-cyclobutylpropanamide]	≥ 15 nM
CCN1C(=O)Cc2ccc(-c3ccc(C[C@@H](C#N)NC(=O)[C@](C)(N)C4CCCC4)cc3)cc21 [Compound 259B, (2R)-2-amino-N-[(1S)-1-cyano-2-[4-(1-ethyl-2-oxo-3H-indol-6-yl)phenyl]ethyl]-2-cyclopentylpropanamide]	≥ 15 nM
Cc1ccccc1CC(CN)C(=O)N[C@H](C#N)Cc1ccc(-c2ccc3oc(=O)n(C)c3c2)cc1 (stereo partly shown) [Compound 192]	≥ 15 nM
Cn1c(=O)oc2ccc(-c3ccc(C[C@@H](C#N)NC(=O)C(C)(N)c4cccnc4)cc3)cc21 (stereo partly drawn) [Compound 216, 2-amino-N-[(1S)-1-cyano-2-[4-(3-methyl-2-oxo-1,3-benzoxazol-5-yl)phenyl]ethyl]-2-(pyridin-3-yl)propanamide]	≥ 15 nM
CN(C)C[C@@H](O)CC(=O)N[C@H](C#N)Cc1ccc(-c2ccc3oc(=O)n(C)c3c2)cc1 [Compound 113, (3S)—N-[(1S)-1-cyano-2-[4-(3-methyl-2-oxo-1,3-benzoxazol-5-yl)phenyl]ethyl]-4-(dimethylamino)-3-hydroxybutanamide]	≥ 15 nM
CN(C)C[C@H](O)CC(=O)N[C@H](C#N)Cc1ccc(-c2ccc3oc(=O)n(C)c3c2)cc1 [Compound 118, (3R)—N-[(1S)-1-cyano-2-[4-(3-methyl-2-oxo-1,3-benzoxazol-5-yl)phenyl]ethyl]-4-(dimethylamino)-3-hydroxybutanamide]	≥ 15 nM
Cn1c(=O)oc2ccc(-c3ccc(C[C@@H](C#N)NC(=O)CC(N)c4cocn4)cc3)cc21 (stereo partly drawn) [Compound 229, 3-amino-N-[(1S)-1-cyano-2-[4-(3-methyl-2-oxo-1,3-benzoxazol-5-yl)phenyl]ethyl]-3-(1,3-oxazol-4-yl)propanamide]	≥ 15 nM
Cc1ccccc1[C@@H](N)CC(=O)N[C@H](C#N)Cc1ccc(-c2ccc3oc(=O)n(C)c3c2)cc1 [Compound 198, (3S)-3-amino-N-[(1S)-1-cyano-2-[4-(3-methyl-2-oxo-1,3-benzoxazol-5-yl)phenyl]ethyl]-3-(2-methylphenyl)propanamide]	≥ 15 nM
Cn1c(=O)oc2ccc(-c3ccc(C[C@@H](C#N)NC(=O)CC(N)c4ccccc4)cc3)cc21 (stereo partly drawn) [Compound 189, 3-amino-N-[(1S)-1-cyano-2-[4-(3-methyl-2-oxo-2,3-dihydro-1,3-benzoxazol-5-yl)phenyl]ethyl]-3-phenylpropanamide]	≥ 15 nM
Cn1c(=O)oc2ccc(-c3ccc(C[C@@H](C#N)NC(=O)[C@@H](O)CN4CCOCC4)cc3)cc21 [Compound 121, (2S)—N-[(1S)-1-cyano-2-[4-(3-methyl-2-oxo-1,3-benzoxazol-5-yl)phenyl]ethyl]-2-hydroxy-3-(morpholin-4-yl)propanamide]	≥ 15 nM
Cn1c(=O)oc2ccc(-c3ccc(C[C@@H](C#N)NC(=O)C(CN)Cc4cccnc4)cc3)cc21 (stereo partly drawn) [Compound 191, 3-Amino-N-[(1S)-1-cyano-2-[4-(3-methyl-2-oxo-1,3-benzoxazol-5-yl)phenyl]ethyl]-2-(pyridin-3-ylmethyl) propanamide]	≥ 15 nM
Cc1ccccc1C[C@@H](CN)C(=O)N[C@H](C#N)Cc1ccc(-c2ccc3oc(=O)n(C)c3c2)cc1 [Compound 194, (2S)-3-amino-N-[(1S)-1-cyano-2-[4-(3-methyl-2-oxo-1,3-benzoxazol-5-yl)phenyl]ethyl]-2-[(2-methylphenyl)methyl]propanamide]	≥ 15 nM
Cn1c(=O)oc2ccc(-c3ccc(C[C@@H](C#N)NC(=O)C(C)(CN)Cc4c(F)cccc4Cl)cc3)cc21 (stereo partly drawn) [Compound 197, 3-amino-2-[(2-chloro-6-fluorophenyl)methyl]-N-[(1S)-1-cyano-2-[4-(3-methyl-2-oxo-1,3-benzoxazol-5-yl)phenyl]ethyl]-2-methylpropanamide]	≥ 15 nM
CN1CCN[C@@H](CC(=O)N[C@H](C#N)Cc2ccc(-c3ccc4oc(=O)n(C)c4c3)cc2)C1 [Compound 253, N-[(1S)-1-cyano-2-[4-(3-methyl-2-oxo-1,3-benzoxazol-5-yl)phenyl]ethyl]-2-(4-methylpiperazin-2-yl)acetamide]	≥ 15 nM

Compound	IC50
CO[C@H](CN(C)C)C(=O)N[C@H](C#N)Cc1ccc(-c2ccc3oc(=O)n(C)c3c2)cc1 [Compound 112, (2R)—N-[(1S)-1-cyano-2-[4-(3-methyl-2-oxo-1,3-benzoxazol-5-yl)phenyl]ethyl]-3-(dimethylamino)-2-methoxypropanamide]	≥ 15 nM
CN(C)C[C@H](O)C(=O)N[C@@H](C#N)Cc1cc2c(cc1F)-c1ccc(C#N)cc1CO2 [Compound 277B, (2S)—N-[(1R)-1-cyano-2-{8-cyano-2-fluoro-6H-benzo[c]chromen-3-yl}ethyl]-3-(dimethylamino)-2-hydroxypropanamide]	≥ 15 nM
Cn1c(=O)oc2ccc(-c3ccc(C[C@@H](C#N)NC(=O)C(C)(CN)Cc4ccccc4F)cc3)cc21 (stereo partly drawn) [Compound 196, 3-Amino-N-[(1S)-1-cyano-2-[4-(3-methyl-2-oxo-1,3-benzoxazol-5-yl)phenyl]ethyl]-2-[(2-fluorophenyl)methyl]-2-methylpropanamide]	≥ 15 nM
Cn1c(=O)oc2ccc(-c3ccc(C[C@@H](C#N)NC(=O)C[C@@H](N)Cc4cccc(O)c4)cc3)cc21 [Compound 225, (3S)-3-amino-N-[(1S)-1-cyano-2-[4-(3-methyl-2-oxo-1,3-benzoxazol-5-yl)phenyl]ethyl]-4-(3-hydroxyphenyl)butanamide]	≥ 15 nM
CC(CO)CC(N)C(=O)N[C@H](C#N)Cc1ccc(-c2ccc3oc(=O)n(C)c3c2)cc1 (stereo partly drawn) [Compound 168, 2-amino-N-[(1S)-1-cyano-2-[4-(3-methyl-2-oxo-1,3-benzoxazol-5-yl)phenyl]ethyl]-5-hydroxy-4-methylpentanamide]	≥ 15 nM
CC(O)CNCC(=O)N[C@H](C#N)Cc1ccc(-c2ccc3oc(=O)n(C)c3c2)cc1 (stereo partly drawn) [Compound 174, N—((S)-1-cyano-2-(4-(3-methyl-2-oxo-2,3-dihydrobenzo[d]oxazol-5-yl)phenyl)ethyl)-2-((2-hydroxypropyl)amino)acetamide]	≥ 15 nM
Cn1c(=O)oc2ccc(-c3ccc(C[C@@H](C#N)NC(=O)C[C@H](N)c4ccccc4O)cc3)cc21 [Compound 227A, (3S)-3-amino-N-[(1S)-1-cyano-2-[4-(3-methyl-2-oxo-1,3-benzoxazol-5-yl)phenyl]ethyl]-3-(2-hydroxyphenyl)propenamide]	≥ 15 nM
Cn1c(=O)oc2ccc(-c3ccc(C[C@@H](C#N)NC(=O)C(C)(N)c4ccc(O)cc4)cc3)cc21 (stereo partly drawn) [Compound 200, 2-amino-N-[(1S)-1-cyano-2-[4-(3-methyl-2-oxo-1,3-benzoxazol-5-yl)phenyl]ethyl]-2-(4-hydroxyphenyl)propanamide]	≥ 15 nM
Cn1c(=O)oc2ccc(-c3ccc(C[C@@H](C#N)NC(=O)C[C@@H](N)c4ccccc4O)cc3)cc21 [Compound 227B, (3R)-3-amino-N-[(1S)-1-cyano-2-[4-(3-methyl-2-oxo-1,3-benzoxazol-5-yl)phenyl]ethyl]-3-(2-hydroxyphenyl)propanamide]	≥ 15 nM
C[C@@H](O)[C@@](C)(N)C(=O)N[C@H](C#N)Cc1ccc(-c2ccc3oc(=O)n(C)c3c2)cc1 [Compound 171C, (2R,3R)-2-amino-N-[(1S)-1-cyano-2-[4-(3-methyl-2-oxo-1,3-benzoxazol-5-yl)phenyl]ethyl]-3-hydroxy-2-methylbutanamide]	≥ 15 nM
Cn1c(=O)oc2ccc(-c3ccc(C[C@@H](C#N)NC(=O)[C@@H](O)CN4CCCC4)cc3)cc21 [Compound 120, (2S)—N-[(1S)-1-cyano-2-[4-(3-methyl-2-oxo-1,3-benzoxazol-5-yl)phenyl]ethyl]-2-hydroxy-3-(pyrrolidin-1-yl)propanamide]	≥ 15 nM
Cn1c(=O)oc2ccc(-c3ccc(C[C@@H](C#N)NC(=O)C[C@@H](N)C4CCCO4)cc3)cc21 (stereo partly drawn) [Compound 226, (3R)-3-amino-N—((S)-1-cyano-2-(4-(3-methyl-2-oxo-2,3-dihydrobenzo[d]oxazol-5-yl)phenyl)ethyl)-3-(tetrahydrofuran-2-yl)propanamide]	≥ 15 nM
CN(C)C[C@@H](O)C(=O)N[C@H](C#N)Cc1ccc(-c2ccc3oc(=O)n(C)c3c2)cc1 [Compound 104, (2R)—N-[(1S)-1-cyano-2-[4-(3-methyl-2-oxo-1,3-benzoxazol-5-yl)phenyl]ethyl]-3-(dimethylamino)-2-hydroxypropanamide]	≥ 15 nM
C[C@@H](N)[C@H](O)C(=O)N[C@H](C#N)Cc1ccc(-c2ccc3oc(=O)n(C)c3c2)cc1 [Compound 102A]	≥ 15 nM
C[C@H](N)[C@H](O)C(=O)N[C@H](C#N)Cc1ccc(-c2ccc3oc(=O)n(C)c3c2)cc1 [Compound 102C]	≥ 15 nM
